Data as given in US20240041859A1, “METHODS OF TREATING AND PREVENTING KIDNEY DISEASE” (Washington University, priority 2020, published 2024).

Key:
PKD1^RC/RC mice [1] = assay: slow-onset ADPKD mouse model, five-month treatment from six months of age; type: in vivo
Excerpt: To test the inhibitors, a slow-onset mouse model of ADPKD was needed that would allow for an extended period of time to treat these mice with the centrosome clustering inhibitors. The widely used slow-onset ADPKD model called the PKD1^RC/RC mouse (Hopp et al, JCI, 2012) was chosen for the small molecule inhibitor tests. These mice develop cysts slowly, such that kidney size increases around 6 months of age, and kidney function declines—as indicated by elevated blood-urea nitrogen (BUN) levels—around 9 months of age. The mice also show extensive cystogenesis as they age. […] Thus, this model was ideal for testing the centrosome clustering inhibitors. Using the slow-onset ADPKD model, the optimal effective time-course for inhibition of centrosome clustering using CCB02 and PJ-34 can be determined. Example 1 describes treatment at timepoints (e.g., beginning at six months of age, beginning at nine months, and up to eleven months of age) and for periods of time (e.g., every other day for sixty days or two months, every two days for five months). PKD1^RC/RC mice were treated with the inhibitors beginning at six months of age—at a stage when their kidneys have yet to dramatically increase in size and show functional decline (see e.g., FIG. 8). Centrosome clustering inhibitor CCB02 was administered by gavage every two days for a total of five months. Also included in the analysis was the only FDA-approved drug for ADPKD, tolvaptan. […] Blood and urine were collected at one-month intervals to monitor kidney function (see e.g., FIG. 8).

PKD1^RC/RC mice [2] = assay: slow-onset ADPKD mouse model, sixty-day treatment followed by three-month washout; type: in vivo
Excerpt: To test the inhibitors, a slow-onset mouse model of ADPKD was needed that would allow for an extended period of time to treat these mice with the centrosome clustering inhibitors. The widely used slow-onset ADPKD model called the PKD1^RC/RC mouse (Hopp et al, JCI, 2012) was chosen for the small molecule inhibitor tests. These mice develop cysts slowly, such that kidney size increases around 6 months of age, and kidney function declines—as indicated by elevated blood-urea nitrogen (BUN) levels—around 9 months of age. The mice also show extensive cystogenesis as they age. […] Thus, this model was ideal for testing the centrosome clustering inhibitors. Using the slow-onset ADPKD model, the optimal effective time-course for inhibition of centrosome clustering using CCB02 and PJ-34 can be determined. Example 1 describes treatment at timepoints (e.g., beginning at six months of age, beginning at nine months, and up to eleven months of age) and for periods of time (e.g., every other day for sixty days or two months, every two days for five months). […] PKD1^RC/RC mice were administered centrosome clustering inhibitor CCB02 beginning at nine months and up to eleven months of age (see e.g., FIG. 12A). CCB02 was administered by gavage every other day for sixty days (see e.g., FIG. 8). The treatment was arrested for three months, and animals were monitored for three additional months to determine if cysts returned once the compounds are no longer administered.

pkd1-null (WT9-12) cells = assay: centrosome clustering inhibitors on ADPKD cell line; type: cell-based; conditions: for mitotic progression / spindle assembly checkpoint (SAC) and cell death of cells with CA: cells with CA; for centrosome clustering in cells with CA: pkd1-null (WT9-12) cells
Excerpt: (§1) Since this approach worked in ADPKD cells, mouse models were subsequently used to test the efficacy of the inhibitors in vivo.

CPAP-tubulin interaction = conditions: binding to tubulin, competing for the CPAP binding site of P-tubulin; cited from earlier work
wild-type (HK2) cells = assay: centrosome clustering inhibitors on wild-type cells; type: cell-based
Excerpt: as §1

[3] = annually; cited from earlier work
[4] = five months treatment vs two-month scheme

Row | SMILES | cyst formation (PKD1^RC/RC mice [1]; five months treatment) | fibrosis markers (PKD1^RC/RC mice [1]; five months treatment) | effect on cystogenesis (PKD1^RC/RC mice [1]; [4]) | effect on renal fibrosis (PKD1^RC/RC mice [1]; [4]) | cyst formation at eleven months (PKD1^RC/RC mice [2]; gavage every other day for sixty days, compared to untreated mice) | BUN (PKD1^RC/RC mice [2]; three months post-washout) | cyst re-formation (PKD1^RC/RC mice [2]; three months post-washout) | fibrosis (PKD1^RC/RC mice [2]; three months post-washout) | serum creatinine (PKD1^RC/RC mice [2]; three months post-washout) | mitotic progression (pkd1-null (WT9-12) cells) | spindle assembly checkpoint (SAC) and cell death of cells with CA (pkd1-null (WT9-12) cells) | centrosome clustering in cells with CA (pkd1-null (WT9-12) cells) | IC50 (CPAP-tubulin interaction) [nM] | normal mitotic spindle formation in cells with normal centrosome number (wild-type (HK2) cells) | reduction of the rate of decline in renal function [3]
1 | COc1ncc2cc3ccccc3nc2c1C#N [CCB02] | better results in comparison to the FDA-approved drug tolvaptan | significant reduction in fibrosis markers | even greater effect on cystogenesis | even greater effect on renal fibrosis | reduction in cyst formation | no increase | cysts did not reform | fibrosis was not evident | no increase | delay in mitotic progression | activation of the spindle assembly checkpoint (SAC), leading to cell death | inhibited centrosome clustering | 689 | not impacting normal mitotic spindle formation | 
2 | CN(C)CC(=O)Nc1ccc2[nH]c(=O)c3ccccc3c2c1.Cl [PJ-34] |  |  |  |  |  |  |  |  |  | delay in mitotic progression | activation of the spindle assembly checkpoint (SAC), leading to cell death | inhibited centrosome clustering |  | not impacting normal mitotic spindle formation | 
3 | Cc1ccccc1C(=O)Nc1ccc(C(=O)N2CCCC(O)c3cc(Cl)ccc32)c(C)c1 (centres unmarked) [tolvaptan] |  | significant reduction in fibrosis markers |  |  |  |  |  |  |  |  |  |  |  |  | 2%-3%
